Patent US8815935B2, “Inhibitors of protein prenyltransferases” (The Regents of the University of California, priority 2008, dated 2014)

Key:
[1] = molecular target: GGTase I (K-Ras4B as substrate) (Homo sapiens, UniProt P49354+P53609); assay: GGTase I filter-binding assay, K-Ras4B as substrate (library screens); format: biochemical; details: for % activity of GGTase I for K-Ras4B in the presence of the compound: compound 50 μM, DMSO = 100%, smaller = better inhibition, 50 µM
Procedure: (§1) The pilot library was screened for inhibitors of protein geranylgeranyltransferase type I. Protein prenyltransferase assays were carried out by using filter binding. Two different substrates, RhoA and K-Ras4B, were used for the assay. RhoA ends with the CaaL motif and is an exclusive substrate for GGTase I, while K-Ras4B ends with the CaaX motif and is modified by both GGTase I and FTase.
(§2) In the assay, a fixed concentration of 100 μM was used and the results are plotted for the inhibition of RhoA (vertical axis) as well as for K-Ras4B (horizontal axis). […] They are 2,6-diaryl-N-tosyl-1,2,5,6-tetrahydropyridine-3-carboxylic acids, except P2-D5 that is missing an aryl substituent at C2.
The % activity of GGTase I was determined as follows: a working solution that contained each compound in DMSO at the concentration of 1 mM was prepared. The working solution was added to GGTase I reaction mixture so that the final concentration of the compound is 50 μM. GGTase I activity was assayed by incubating [^3H]GGPP with K-Ras4B or RhoA protein in the presence of GGTase I and examining radioactivity incorporated into the substrate protein by spotting onto a filter paper. After washing with TCA, ethanol and acetone, the radioactivity retained on the filter was determined by the use of a scintillation counter. GGTase I activity in the presence of DMSO was taken as a 100% value and the activity in the presence of the compound was shown as percent activity compared with the 100% value. […] For 6-aryl-4-mercapto-N-sulfonyl-piperidine-3-carboxylic acid 11 the 4-mercapto substituent appeared critical to endowing GGTase inhibitory activity. […] 4-Chlorobenzylthio substituent was the next best; 12 compounds out of 21 containing the 4-chlorobenzylthio moiety were active. 4-Benzylthio substituent was also good; 7 piperidines out of 21 bearing 4-benzylthio group were active. […] 19 imines (C15>C12=C41>C40>C01=C11>C05=C10=C30=C35=C37=C38>C02, C03, C04, C06, C39=C43) out of 21 appeared in the GGTIs. […] This corresponds to 47 6-aryl-4-mercapto-N-sulfonyl-piperidine-3-carboxylic acids out of 357 compounds.
A collection of 138 heterocycles was screened for their ability to inhibit the activity of human GGTase-I to geranylgeranylate K-Ras4B or RhoA. Purified GGTase-I was incubated with its substrate protein K-Ras4B or RhoA, [^3H]GGPP, and the 138 compounds. After 30 min, the degree of incorporation of tritiated geranylgeranyl groups was measured using a scintillation counter.

[2] = molecular target: GGTase I (RhoA as substrate) (Homo sapiens, UniProt P49354+P53609); assay: GGTase I filter-binding assay, RhoA as substrate (library screens); format: biochemical; details: compound 50 μM, DMSO = 100%, smaller = better inhibition
Procedure: as §1, §2
The % activity of GGTase I was determined as follows: a working solution that contained each compound in DMSO at the concentration of 1 mM was prepared. The working solution was added to GGTase I reaction mixture so that the final concentration of the compound is 50 μM. GGTase I activity was assayed by incubating [^3H]GGPP with K-Ras4B or RhoA protein in the presence of GGTase I and examining radioactivity incorporated into the substrate protein by spotting onto a filter paper. After washing with TCA, ethanol and acetone, the radioactivity retained on the filter was determined by the use of a scintillation counter. GGTase I activity in the presence of DMSO was taken as a 100% value and the activity in the presence of the compound was shown as percent activity compared with the 100% value. […] For 6-aryl-4-mercapto-N-sulfonyl-piperidine-3-carboxylic acid 11 the 4-mercapto substituent appeared critical to endowing GGTase inhibitory activity. […] 4-Chlorobenzylthio substituent was the next best; 12 compounds out of 21 containing the 4-chlorobenzylthio moiety were active. […]
A collection of 138 heterocycles was screened for their ability to inhibit the activity of human GGTase-I to geranylgeranylate K-Ras4B or RhoA. […] After 30 min, the degree of incorporation of tritiated geranylgeranyl groups was measured using a scintillation counter.

[3] = system: H-Ras farnesylation in NIH3T3 cells; assay: H-Ras mobility shift immunoblot in NIH3T3 cells; format: cell-based; details: 48 hours
Procedure: K562 cells were treated with modified compounds for 72 hours and then cell number was counted. IC50 values of cell viability relative to the DMSO were measured. […] Data represent the mean+/−S.D. of two measurements from two independent experiments. *, P<0.05 compared with the value for DMSO. […] Whole cell lysates from cells treated with DMSO, P5-H6, P61-A6, GGTI (GGTI-298), FTI (BMS-225975) or RabGGTI (P49-F6) for 48 hours were prepared and processed for immunoblot analysis using antibody against unprenylated form of Rap1 (C: upper panel), Total-Rap1 (C: middle panel), H-Ras (D: upper panel), Rab5b (E: upper panel) or actin (C, D, and E: lower panel). The immunoblots shown represent two independent experiments for each treatment.
This was examined by using a farnesylated protein H-Ras.

GGTase-I = molecular target: T1, GGTase-I (Rattus norvegicus, UniProt P53610+Q04631); assay: In vitro GGTase-I enzyme assay (IC50, kinetics); format: biochemical
T1 construct: purchased JENA BIOSCIENCE
Summary of the method: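 Rat GGTase-I (50 nM) with 0.5 μM [3H]-GGPP and 2 μM MBP-RhoA in Tris-HCl pH 7.5, MgCl2, ZnCl2, DTT, 2.5% DMSO, 10 min at 30 °C; radiolabel incorporation by TCA filter binding and scintillation. Kinetics: 5 min reactions varying GGPP or RhoA at fixed other components.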

FTase = molecular target: T2, FTase (Rattus norvegicus, UniProt Q02293+Q04631); assay: In vitro FTase assay (K-Ras4B substrate, [3H]FPP); format: biochemical; details: P3-D9, P3-E5: concentration increased to 100 (unit not given)
T2 construct: purchased JENA BIOSCIENCE
From the text: To further characterize the pilot library, inhibitors of protein farnesyltransferase were identified. This was accomplished by using K-Ras4B as a substrate protein, tritiated farnesylpyrophosphate ([^3H]FPP) and protein farnesyltransferase. See Finegold, A. A., Johnson, D. I., Farnsworth, C. C., Gelb, M. H., Judd, S. R., Glomset, J. A. and Tamanoi, F. (1991) Protein geranylgeranyltransferase of Saccharomyces cerevisiae is specific for Cys-Xaa-Xaa-Leu motif and requires the CDC43 gene product but not the DPR1 gene product. Proc. Natl. Acad. Sci. USA 88, 4448-4452. […] On the other hand, the structure of the compounds P1-F11, P2-B7 and P2-E9 resemble those of GGTIs. The FTI P1-F11 resembles the GGTI P1-F10, while the FTI P2-B7 resembles the GGTI P2-C10. The FTI P2-E9 is similar to the GGTI P2-G3. Similarity of some GGTI and FTI compounds may point to common structural features between the two closely related enzymes. As described before, FTase and GGTase I have similar three-dimensional structures and a shared alpha subunit. On the other hand, FTase specific inhibitors may recognize a region(s) that is different between the two enzymes.
Examples 2-8 illustrate assays of bioactivity. These methods are applicable to the compounds of the present invention having the particular linkers and scaffolds described herein, to determine their activity. […] Varying concentrations of the two compounds were added to each enzyme reaction. The FTase (protein farnesyltransferase) assay was carried out using K-Ras4B as a substrate protein, FTase (JENA Bioscience, San Diego, Calif.) and [3H]farnesyl pyrophosphate. Incubation was for 30 min at 37° C.
GGTase-I and FTase activities were determined by following the incorporation of radiolabeled isoprenoid [^3H]-geranylgeranyl or [^3H]-farnesyl into substrate proteins. FTase or GGTase-I (50 nM) were used to initiate reactions containing 0.4 μM of [^3H]-FPP or 0.5 μM of [^3H]-GGPP and 2 μM of MBP-tagged substrates (K-Ras4B for FTase; RhoA for GGTase-I) in 20 μl of buffer {50 mM Tris-HCl (pH 7.5), 10 mM MgCl2, […] and 5 mM DTT}. Inhibitors were added at the indicated concentrations. The final DMSO concentration was 2.5% for all samples.
Reactions were carried out for 10 min at 30° C. The reaction mixture was spotted onto a filter paper, treated with 10% trichloroacetic acid (TCA) followed by ethanol and acetone washing. The filter was counted using a scintillation counter. Kinetic assays in which the GGPP concentration was varied employed fixed concentrations of GGTase-I and RhoA, and reactions were carried out for 5 min. Similarly, fixed concentrations of GGTase-I and GGPP were used when the amount of RhoA was varied.

Row | inhibition of GGTase I (FIG. 16 controls) (GGTase-I) | inhibition of FTase activity (FIG. 16) (FTase) | Structure (SMILES) | % activity of GGTase I for K-Ras4B in the presence of the compound [1] [%] | % activity of GGTase I for RhoA in the presence of the compound [2] [%] | mobility shift of H-Ras (protein farnesylation) [3] | relative inhibition of RhoA-driven versus K-Ras4B-driven GGTase I activity ([1]; pilot screen 100 μM, library screen 50 μM)
1 |  |  | Cc1ccccc1S(=O)(=O)N1C(c2ccc(Cl)cc2)CC=C(C(=O)O)[C@@H]1c1ccccc1 (some centres unmarked) [drawing 42] | 5.4 | 3.0 |  | 
2 |  |  | Cc1ccccc1S(=O)(=O)N1C(c2ccc(Cl)cc2)CC=C(C(=O)O)[C@@H]1c1ccccc1 (some centres unmarked) [drawing 33] | 10.6 | 8.8 |  | 
3 | inhibits GGTase I | little inhibition | COC(=O)[C@H](CC(C)C)NC(=O)c1ccc(NC[C@@H](N)CS)cc1-c1cccc2ccccc12 [GGTI-298, reference compound] |  |  | no such mobility shift | inhibit RhoA-driven GGTase I activity slightly better than K-Ras4B-driven GGTase I activity
